# Patent US20030013761A1, “Use of fumaric acid derivatives for treating mitochondrial diseases” (priority 2000, published 2003)
# Counter-ions that a name gives are not always drawn.
# Biological target: T1, succinate dehydrogenase (Homo sapiens, UniProt P31040)
# T1 construct: Fibroblasts [0.75 m Val/I]; endogenous in cells
# Experiment: Stimulating influence of fumaric acid derivatives on the enzyme activity of succinate dehydrogenase in fibroblasts
# Type: cell-based
# Settings: Fibroblasts [0.75 m Val/I]
# Description: Succinate dehydrogenase is part of the mitochondrial membrane and catalyses the […] of succinic acid to fumaric acid within the citrate cycle. Hydrogen is passed to the respiratory chain via the electron transfer flavoprotein. Thus, the activity of succinate dehydrogenase may influence the electron flow of the electron transport chain. The latter, in turn, is linked to the process of oxidative phosphorylation, the malfunction of which is considered a cause for mitochondrial diseases. Consequently, the activity of succinate dehydrogenase may also have an effect on oxidative phosphorylation.
# T1 sequence (P31040 43-664): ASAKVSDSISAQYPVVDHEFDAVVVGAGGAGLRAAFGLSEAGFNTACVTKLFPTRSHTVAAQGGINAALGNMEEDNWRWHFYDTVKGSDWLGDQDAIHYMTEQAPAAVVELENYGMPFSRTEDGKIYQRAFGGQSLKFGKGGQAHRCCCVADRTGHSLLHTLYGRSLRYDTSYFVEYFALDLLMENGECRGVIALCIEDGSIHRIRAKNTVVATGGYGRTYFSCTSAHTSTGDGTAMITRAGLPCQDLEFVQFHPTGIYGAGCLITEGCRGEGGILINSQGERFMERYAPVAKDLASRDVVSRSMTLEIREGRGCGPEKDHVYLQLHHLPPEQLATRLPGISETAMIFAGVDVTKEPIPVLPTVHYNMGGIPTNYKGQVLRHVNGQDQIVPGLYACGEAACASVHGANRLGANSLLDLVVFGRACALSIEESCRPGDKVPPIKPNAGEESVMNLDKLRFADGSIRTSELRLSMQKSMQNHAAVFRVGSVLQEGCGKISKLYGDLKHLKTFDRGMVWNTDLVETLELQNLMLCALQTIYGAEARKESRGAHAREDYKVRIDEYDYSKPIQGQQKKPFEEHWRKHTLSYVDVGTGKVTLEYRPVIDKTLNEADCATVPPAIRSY
# T1 sequence (P21912 29-280 partner): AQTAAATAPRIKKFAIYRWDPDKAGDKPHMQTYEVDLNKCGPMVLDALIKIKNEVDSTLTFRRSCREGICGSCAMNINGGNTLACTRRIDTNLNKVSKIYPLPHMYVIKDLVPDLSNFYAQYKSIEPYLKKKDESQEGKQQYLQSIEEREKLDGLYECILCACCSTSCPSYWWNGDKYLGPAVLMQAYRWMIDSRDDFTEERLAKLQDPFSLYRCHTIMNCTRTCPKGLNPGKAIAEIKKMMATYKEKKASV
# T1 sequence (Q99643 30-169 partner): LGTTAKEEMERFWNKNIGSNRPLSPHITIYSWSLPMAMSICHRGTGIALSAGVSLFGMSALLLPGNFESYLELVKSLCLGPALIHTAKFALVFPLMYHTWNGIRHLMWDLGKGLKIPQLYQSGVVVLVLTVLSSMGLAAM
# T1 sequence (O14521 57-159 partner): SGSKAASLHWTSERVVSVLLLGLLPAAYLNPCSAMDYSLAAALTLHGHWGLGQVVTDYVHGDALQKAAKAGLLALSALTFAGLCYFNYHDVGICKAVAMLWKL
Compound,evaluation of the stimulating influence on the enzyme activity of succinate dehydrogenase (grade in words),stimulation of the enzyme activity of succinate dehydrogenase (percent in brackets)
COC(=O)/C=C/C(=O)OC [Dimethyl fumarate],strong,838%
CCOC(=O)/C=C/C(=O)[O-].[Ca+] [Calcium monoethyl fumarate],medium,
CCOC(=O)/C=C/C(=O)O [Monoethyl fumarate],weak,
CCOC(=O)/C=C/C(=O)[O-].[Mg+] [Magnesium monoethyl fumarate],weak,
CCOC(=O)/C=C/C(=O)[O-].[Zn+] [Zinc monoethyl fumarate],strong,107%
